Consider three compounds from patent US5114972A, “Synthesis and uses of new ascorbic acid derivatives which have anti-oxidant and anti-cancer activities” (priority 1990, dated 1992).

The subject of one data set is mice. The experiment in a line: Reduction of toxic side-effect of 5-FU by OC-5186 (Experiment 2). The class given is in vivo. Here is the method: (§1) In the Experiment 2, the amount of the oligomer was cut down to 1 mg/kg/day to see whether we could still observe anti-cancer activity.
A further data set has as its system solid tumor (EAT cells). The experiment in a line: Anti-cancer activity, solid tumor model (EAT cells inoculated subcutaneously). It is filed as in vivo, mice. As to conditions: 5-FU 20 mg/kg/day. The protocol: (§2) We used two mice models (Tomomatsu, Morita, Nagai, Shiwaku, Ichiki and Yonoki: Acta Med. Univ. Kagoshima. 17:99, 1975), i.e., (a) Ehrlich's ascites tumor (EAT) model and (b) a solid tumor model in which EAT cells were innoculated subcutaneously. In (a), 10^7 tumor cells were injected I.P. in a mouse with the body weight of 20 g. In (b), the same amount of tumor cells were injected subcutaneously in a mouse of similar weight. After 21 days, we measured several parameters: (i) the change of body weight; (ii) average time to their death, from which we measure extension of life span, and (iii) survival rate.
(§3) In the solid tumor model, we measured the extension of the life span and the survival rate. […] In the Experiment 1, from day 4 until day 13 (for ten days), anti-cancer drugs were administered. […] In the combination therapy, both drugs were administered simultaneously at their respective doses. […] With the 5-FU, they died in an average of 20.3 days. […] In the tumor model, similar tendency was observed.
as §1

For data set [1], the system named is Ehrlich's ascites tumor (EAT). The experiment in a line: Anti-cancer activity, Ehrlich's ascites tumor (EAT) model. It is filed as in vivo, mice. As to conditions: 5-FU 20 mg/kg/day. Here is the method: as §2
In the ascites tumor model, an increase of body weight is related to the increase in ascites. When the animal dies, we collect the ascites fluid and measure the number of tumor cells found in the ascites.
as §3, §1

The next data set deals with sickle red blood cells. The experiment in a line: Formation of irreversibly sickled cells upon sickling-unsickling cycling in vitro. As to conditions: 10 ug/ml. The class given is cell-based. The text has this:
The inventor previously developed the method to produce irreversibly sickled cells (ISC, which are irreversibly denatured sickle cells) by exposing sickle red blood cells to a repeated sickling-unsickling cycling in vitro. He used this system to determine the efficacy of drugs in protecting cell membranes (Ohnishi, Br. J. Haematol. 55:665-671, 1983; Ohnishi et al. Biochim. Biophys. Acta 886:119-129, 1986). […] These heavy cells were collected, the amount measured, and the percentage of production calculated.

The test system of data set [2] is FCR-3 strain P. falciparum. The experiment in a line: Growth inhibition of P. falciparum in in vitro culture. The class given is cell-based. As to conditions: 50 ug/ml, forty-eight hours. Here is the method: The FCR-3 strain P. falciparum was used. Blood-stage parasites were cultured in RPMI-1640 (GIBCO Laboratories, Chagrin Falls, Ohio) in 96 well flat bottomed plates (Costar; Cambridge, Mass.) using the candle jar method described by Jensen and Trager (J. Parasitology 63:883,1977) and modified by Grun and Weidanz (J. Parasitology 73:384, 1987). Parasitemia was estimated on GIEMSA stained films of cultures. For drug administration, desired amounts of chemicals were added to an individual wells of 96 well plates. Forty-eight hours later, parasitemia was estimated and the degree of growth inhibition was determined.

The subject of a further data set is brain ischemia. The experiment in a line: Survival rate after global brain ischemia. As to conditions: 9 mg/kg; OC-5186 injected I.P. thirty minutes prior to ischemia; control 8 out of 8 died within 2 days. The class given is in vivo, Sprague-Dawley rats. The protocol: Adult, male Sprague-Dawley rats, weighing 300 to 350 grams, were used to prepare global ischemia. Anesthesia was induced and maintained with forane in 70% nitrous oxide-30% oxygen. After trachea was intubated, anesthesia was maintained using a ventilator. Both common carotid arteries were exposed and occluded by microaneurysmal clips. Then 12 to 14 ml of blood was withdrawn from the tail vein to bring the blood pressure to 30 mm Hg, which caused global ischemia. After twenty minutes of ischemia, blood was reinfused, clips were removed to induce recirculation. After twenty minutes of recirculation, the rat was decapitated, the brain was removed in ice-cold saline and then homogenized for TBAR measurement and spin trap measurement. For the measurement of survival rate, the wound was sutured and the animal recovered. The animal was returned to its cage. They were then observed for the survival rate. […] In this experiment, the brain was homogenized in the presence of 50 mM tert-butyl-(alpha)-phenylnitrone and the homogenate was introduced to electron spin resonance spectrophotometer.
In control experiment, where no drug was introduced, 8 out of 8 animals died within 2 days. […] Ascorbic acid (9 mg/kg) had no effect.

A short description of data set [3]: Anti-oxidant activity and protection from ischemic trauma (summary statement).
Data set [4] relates to lipid peroxidation (TBAR) in rat head/brain homogenate. The experiment in a line: Inhibition of TBAR production (lipid peroxidation) in ischemic rat brain homogenate, drug added in vitro. The class given is biochemical. As to conditions: added in vitro before exposure to air (FIG. 3, FIG. 4). The text has this:
(A) When cell membranes are exposed to ischemic or hypoxic insult, lipid peroxidation takes place. The degree of peroxidation can be measured by the production of thiobarbiturate reactive substances (TBAR). We have developed a simple assay method; we decapitate the rat and keep the head under a hypoxic condition for thirty minutes at 37 degrees and then homogenize it, then expose the homogenate to air for sixty minutes and measure the production of TBAR.

Data set [5] in a line: Superoxide scavenging activity, adenochrome method. It is filed as biochemical. As to conditions: 50 ug/ml each; absorbance at 480 nm (FIG. 1). The text has this:
From the change of the slope, we can estimate the activity of scavenging action.

With `O=c1[nH]cc(F)c(=O)[nH]1` [5-FU, 5-fluorouracil], the “survival of chemotherapy / toxicity” value in the data set on mice (administered for 23 days) was “all animals die if it is administered for 23 days”. In addition, the “tolerated duration of 5-FU administration without OC-5186” value in the data set with mice (without OC-5186) is given as not above 10 days. The “Solid tumor weight (on 21 days)” value in the data set on solid tumor (EAT cells) (Experiment 1, day 4 to day 13, OC-5186 10 mg/kg/day, combination at respective doses, control 1.2 g) worked out at 0.70 g. The “21 day surv., solid tumor model” value in the data set with solid tumor (EAT cells) (Experiment 2, 23 days, OC-5186 1 mg/kg/day, combination, control 25%) is listed as 40%. The “Av. Surv., solid tumor model” value with solid tumor (EAT cells) (Experiment 2, 23 days, OC-5186 1 mg/kg/day, combination, control 23.2 days) amounted to 26 days. Further, the “21 day survival, EAT model” value in data set [1] (Experiment 1, day 4 to day 13, OC-5186 10 mg/kg/day, combination at respective doses, control 25%) worked out at 40%; in [1] (Experiment 2, 23 days, OC-5186 1 mg/kg/day, combination, control 0%), 40%. Further, the “Average survival, EAT model” value in data set [1] (Experiment 1, day 4 to day 13, OC-5186 10 mg/kg/day, combination at respective doses, control 17.0 days) is listed as 20.3 days; in data set [1] (Experiment 2, 23 days, OC-5186 1 mg/kg/day, combination, control 15.3 days) it was 20.3 days.
As for `O=C1O[C@H]([C@@H](O)CO)C(O)=C1O` [Ascorbic acid], the “inhibition of formation of irreversibly denatured cells (in words)” value in the data set on sickle red blood cells is reported as “did not inhibit the formation”. Moreover, in data set [2], the “inhibition of growth of P. falciparum (in words)” value is on record as “did not inhibit the growth”. For the same compound, in the data set on brain ischemia, the survival after ischemia result was “had no effect”.
With `CCCCC[C@H](O)/C=C/C1=C(C/C=C\CCCC(=O)OC[C@H](O)[C@H]2OC(=O)C(O)=C2O)C(=O)CC1` [OC-5181], the anti-oxidant activity result in data set [3] is “strong anti-oxidant activity”. Besides, the “inhibition of TBAR production / antioxidant activity in vitro” value in data set [4] is “antioxidant activity comparable to free acid type prostaglandin oligomers, OC-2186”. In addition, the “superoxide-induced adenochrome formation (slope of the curve)” value in [5] is on record as “the slope of the curve decreased”.
